We go through eight compounds from publication PMC4773869, “Influence of plasma-activated compounds on melanogenesis and tyrosinase activity” (Scientific Reports, 2016).

The test system of one data set is B16F10 cells. Nature of the data set: Intracellular melanin content measurement. The conditions noted are these: for melanin, % of control (normalized to 100%): as-synthesized ED, no α-MSH, concentration not given. Format: cell-based, murine. On the procedure: Melanoma (1.5 × 10^5) cells were seeded in cell culture plates and allowed to attach for 24 hr. Then each eugenol derivative was added and tested separately for melanin activation after 24 hr of incubation. After incubation, cells were detached using trypsin/EDTA and centrifuged at 1000 rpm for 5 min to collect the cell pellets. The cell pellets were solubilized in 1N NaOH at 60 °C for 1 hr. The melanin content was measured spectrophotometrically at 405 nm wavelength using a microplate reader (BioTek, synergy HT)[56]. […] Plasma-treated and non-plasma-treated ED (4b and 6a) were added to the cells, pre-incubated with or without α-MSH (100 nM) for a further 24 hr and melanin content was assayed as described above. Kojic acid can inhibit and α-MSH can stimulate the melanin in the cells, therefore we used them as negative and positive controls.

In data set [1] the target is T1, mushroom tyrosinase (Agaricus bisporus, UniProt C7FF04). Briefly: Circular dichroism analysis of the secondary structure of mushroom tyrosinase. To be noted: 0.1 mM; for Turn % of tyrosinase: enzyme alone 7; for α-helix % of tyrosinase: enzyme alone 16; for β-sheet % of tyrosinase: enzyme alone 33; for Random coil % of tyrosinase: enzyme alone 44. On the procedure: The structural changes in tyrosinase after incubation with ED and PAED were plotted in Fig. 5. […] We observed that the control tyrosinase enzyme has 16% α-helix, 33% β-sheets, 7% turn, and 44% random coil. After the interaction with 4a, the amount of α-helix changed to 15% and β-sheets changed to 35%. On the other hand, after the plasma treatment of 4a the amount of α-helix changed to 17% and β-sheets changed to 31%. While, after interacting with 4b, the amount of α-helix is 16.0%, β-sheets 29%, turn 10%, and random coil is 45.0%. However, plasma-activated 4b interacts differently with tyrosinase enzyme, showing 16% α-helix, 33% β-sheets, 6% turn, and 45% random coil. When 6a ED interacted with tyrosinase enzyme, we observed 20% α-helix, 25% β-sheets, 11.0% turn, and 44% random coil. However, 6a PAED interacts with tyrosinase enzyme, the α-helix changed to 19%, β-sheets 28%, turn 9%, and random coil 44%. […] To obtain further detail on the interaction of the ED with tyrosinase enzyme, we studied the molecular docking. For the CD spectroscopic studies[65][66][67] a J-815 spectrophotometer (Jasco, Japan) was used, equipped with a Peltier system that controlled the temperature. (1S)-(+)-10-camphorsulfonic acid (Aldrich, Milwaukee, WI) with a molar extinction coefficient of 34.5 M/cm at 285 nm and a 2.36 M/cm molar ellipticity (θ) at 295 nm was used for the CD calibrations. The samples were pre-equilibrated at the desired temperature for 15 min, and the scan speed was fixed for adaptative sampling (error F 0.01) with a response time of 1 sec and a 1 nm bandwidth. The secondary structure of the mushroom tyrosinase was monitored by using a 1.0 cm path length cuvette. The mushroom tyrosinase (0.2 mg/ml) was prepared in phosphate buffer (20 mM) at pH 6.8 for CD analysis. We used the 0.1 mM concentration of all derivatives in 1 ml buffer solution, with or without 10 min plasma treatment. All spectra were collected in triplicate from 200 to 250 nm and the background was corrected against the buffer (blank). The percentages of secondary structures of proteins were calculated using inbuilt Jasco software.
Target sequence in this assay (C7FF04 2-392): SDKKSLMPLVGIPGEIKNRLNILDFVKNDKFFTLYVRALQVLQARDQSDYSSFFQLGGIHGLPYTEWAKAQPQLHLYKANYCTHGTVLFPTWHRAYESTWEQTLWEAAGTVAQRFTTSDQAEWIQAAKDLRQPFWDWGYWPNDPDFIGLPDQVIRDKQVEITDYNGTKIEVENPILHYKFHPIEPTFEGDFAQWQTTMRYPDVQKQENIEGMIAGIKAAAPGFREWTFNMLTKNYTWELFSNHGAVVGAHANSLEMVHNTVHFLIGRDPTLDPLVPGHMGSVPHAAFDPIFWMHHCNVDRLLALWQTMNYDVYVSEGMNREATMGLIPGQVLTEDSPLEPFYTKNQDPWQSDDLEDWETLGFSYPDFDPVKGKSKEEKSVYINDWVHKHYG
In general terms: Circular dichroism is widely used to follow secondary structure.

Data set [2] deals with T1, mushroom tyrosinase. Briefly: Mushroom tyrosinase inhibition assay (L-DOPA, dopachrome at 492 nm). The data set is classed as biochemical. Also noted: purchased Sigma Chemical Co. USA. The conditions noted are these: mean ± SD, read-out: Tyrosinase inhibitory activity IC50 (converted). As to the method: To determine the action of ED and PAED, we checked the mushroom tyrosinase inhibitory activity in a cell-free environment. […] Moreover, after plasma treatment for different time intervals, we observed that inhibition activity of 4a, 4b, 4d and 6a was improved more as compared to without treatment. […] However, we observed the highest relative improvement in IC50 value of compound 4b among all ED compounds at 10 min plasma treatment. […] Therefore, we used the 4b and 6a compounds for further investigations, based on the decrease in IC50 value to a global minimum of the experiment after plasma treatment.
The mushroom tyrosinase was used for in vitro bioassays as described previously with some modifications. Briefly, 140 μl of phosphate buffer (20 mM, pH 6.8), 20 μl of mushroom tyrosinase (30 U/ml), and 20 μl of the inhibitor solution were placed in the wells of a 96-well plate. After pre-incubation for 10 min at room temperature, 20 μl of L-DOPA (3,4-dihydroxyphenylalanine) (0.85 mM) was added and the plate was further incubated at 25 °C for 20 min. Subsequently the absorbance of dopachrome was measured at 492 nm using a micro plate reader (OPTI Max, Tunable). Kojic acid was used as a reference inhibitor. The extent of inhibition by the test compounds was expressed as the […] necessary to achieve 50% inhibition (IC50). Each concentration was analyzed in three independent experiments run in triplicate. The IC50 values were determined by the data analysis and graphing software, Origin.
Target sequence in this assay (C7FF04 1-392): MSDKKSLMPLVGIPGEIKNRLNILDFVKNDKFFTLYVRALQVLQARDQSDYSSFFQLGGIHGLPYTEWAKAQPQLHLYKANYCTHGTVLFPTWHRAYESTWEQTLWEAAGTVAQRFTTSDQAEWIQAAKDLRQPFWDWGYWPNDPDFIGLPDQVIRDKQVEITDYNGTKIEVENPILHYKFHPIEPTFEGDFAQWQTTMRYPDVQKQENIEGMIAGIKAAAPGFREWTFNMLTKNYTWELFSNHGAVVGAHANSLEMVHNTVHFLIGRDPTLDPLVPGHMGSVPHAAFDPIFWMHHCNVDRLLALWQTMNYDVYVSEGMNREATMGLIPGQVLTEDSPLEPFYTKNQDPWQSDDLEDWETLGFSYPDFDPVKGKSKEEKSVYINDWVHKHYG

Where [3] appears, read: tyrosinase + 10 min plasma-treated compound.
Setting [4] is: Con: as-synthesized, before plasma treatment, cell-free.
Where [5] appears, read: compound after 3 min N2 APPJ plasma treatment.
Where [6] appears, read: compound after 5 min N2 APPJ plasma treatment.
[7] abbreviates: compound after 10 min N2 APPJ plasma treatment.
Setting [8] is: tyrosinase + as-synthesized compound (0 min plasma).

Like-named read-outs stand apart in the source and are kept apart here.

In the case of `O=C(COC(=O)c1ccc(O)cc1)Oc1ccc(C(=O)/C=C/O)cc1OCO` [Plasma treated 4b], the “melanin synthesis, % of control (100%)” value in the data set on B16F10 cells (10 min plasma-treated, presence of α-MSH) came to 188%. At mushroom tyrosinase [1] (setting [3]), the “Turn % of tyrosinase” value turned out to be 6%, the “α-helix % of tyrosinase” value was 16%, the “β-sheet % of tyrosinase” value is given as 33% and the “Random coil % of tyrosinase” value turned out to be 45%.
For the compound `C=CCc1ccc(OC(=O)COC(=O)c2cc(O)cc(O)c2)c(OC)c1` [4e, 2-[2-methoxy-4-(prop-2-en-1-yl)phenoxy]-2-oxoethyl 3,5-dihydroxybenzoate], the melting point (usually the temperature of the solid-liquid transition) is 107 to 109 °C. Besides, in the data set on B16F10 cells, the “melanin, % of control (normalized to 100%)” value is listed as 115%. On mushroom tyrosinase [2] (setting [4]), the half-maximal inhibitory concentration (IC50) – broadly, the midpoint of a concentration-inhibition curve – was 53 µM. Moreover, the IC50 on mushroom tyrosinase [2] (setting [5]) is 215 µM. Besides, the IC50 on mushroom tyrosinase [2] (setting [6]) was 201 µM. In addition, the concentration for half-maximal inhibition (IC50) on mushroom tyrosinase [2] (setting [7]) was 156 µM. On mushroom tyrosinase [1] (setting [8]), the “Turn % of tyrosinase” value came to 6%, the “α-helix % of tyrosinase” value is 15%, the “β-sheet % of tyrosinase” value is on record as 33% and the “Random coil % of tyrosinase” value amounted to 46%.
Turning to `C=CCc1ccc(OC(=O)COC(=O)c2ccc(O)c(O)c2)c(OC)c1` [4d, 2-[2-methoxy-4-(prop-2-en-1-yl)phenoxy]-2-oxoethyl 3,4-dihydroxybenzoate], the melting point lay in the range of 148 to 151 °C. The “melanin, % of control (normalized to 100%)” value with B16F10 cells is recorded as 110%. Besides, the IC50 on mushroom tyrosinase [2] (setting [4]) was 162 µM. Also, the half-maximal inhibitory concentration (IC50) on mushroom tyrosinase [2] (setting [5]) is 131 µM. Further, on mushroom tyrosinase [2] (setting [6]), the IC50 is 100 µM. Moreover, at mushroom tyrosinase [2] (setting [7]), the concentration for half-maximal inhibition (IC50) is 80.9 µM. Moreover, at mushroom tyrosinase [1] (setting [8]), the “Turn % of tyrosinase” value is 7%, the “α-helix % of tyrosinase” value came out at 15%, the “β-sheet % of tyrosinase” value was 33% and the “Random coil % of tyrosinase” value is listed as 45%.
Consider `C=CCc1ccc(OC(=O)COC(=O)c2ccc(O)cc2O)c(OC)c1` [4c, 2-[2-methoxy-4-(prop-2-en-1-yl)phenoxy]-2-oxoethyl 2,4-dihydroxybenzoate], for which the melting point is 99 to 101 °C. In addition, the “melanin, % of control (normalized to 100%)” value in the data set on B16F10 cells came out at 117%. On mushroom tyrosinase [2] (setting [4]), the IC50 is 41.9 µM. The IC50 at mushroom tyrosinase [2] (setting [5]) was 53 µM. Also, the half-maximal inhibitory concentration (IC50) at mushroom tyrosinase [2] (setting [6]) was 67 µM. The IC50 at mushroom tyrosinase [2] (setting [7]) was 80.9 µM. Further, at mushroom tyrosinase [1] (setting [8]), the “Turn % of tyrosinase” value is given as 4%, the “α-helix % of tyrosinase” value is given as 16%, the “β-sheet % of tyrosinase” value worked out at 35% and the “Random coil % of tyrosinase” value worked out at 45%.
The compound `C=CCc1ccc(OC(=O)COC(=O)/C=C/c2ccc(Cl)cc2)c(OC)c1` [6b, 2-[2-methoxy-4-(prop-2-en-1-yl)phenoxy]-2-oxoethyl(2E)-3-(4-chloroyphenyl)prop-2-enoate] gave a melting point of 86 to 88 °C. In the data set with B16F10 cells, the “melanin, % of control (normalized to 100%)” value is on record as 119%. The “melanin stimulation (in words)” value in the data set with B16F10 cells (with or without plasma treatment, presence or absence of α-MSH (Fig. 10)) was “Melanin stimulation was observed”. Besides, the 50% inhibitory concentration (IC50) on mushroom tyrosinase [2] (setting [4]) was 18.1 µM. The half-maximal inhibitory concentration (IC50) on mushroom tyrosinase [2] (setting [5]) was 85.3 µM. Further, the IC50 on mushroom tyrosinase [2] (setting [6]) is 103 µM. The IC50 at mushroom tyrosinase [2] (setting [7]) is 142 µM. At mushroom tyrosinase [1] (setting [8]), the “Turn % of tyrosinase” value worked out at 3%, the “α-helix % of tyrosinase” value was 15%, the “β-sheet % of tyrosinase” value is 37% and the “Random coil % of tyrosinase” value amounted to 45%.
Take `C=CCc1ccc(OC(=O)COC(=O)c2cccc(O)c2)c(OC)c1` [4a, 2-[2-methoxy-4-(prop-2-en-1-yl)phenoxy]-2-oxoethyl 3-hydroxybenzoate]: the melting point was 70 to 72 °C. For the same compound, in the data set with B16F10 cells, the “melanin, % of control (normalized to 100%)” value turned out to be 116%. On mushroom tyrosinase [2] (setting [4]), the IC50 was 73 µM. In addition, the IC50 on mushroom tyrosinase [2] (setting [5]) was 70.1 µM. In addition, the IC50 at mushroom tyrosinase [2] (setting [6]) is 58.4 µM. In addition, the half-maximal inhibitory concentration (IC50) on mushroom tyrosinase [2] (setting [7]) is 49.7 µM. Besides, at mushroom tyrosinase [1] (setting [3]), the “α-helix % of tyrosinase” value is listed as 17% and the “β-sheet % of tyrosinase” value came out at 31%. At mushroom tyrosinase [1] (setting [8]), the “Turn % of tyrosinase” value is given as 5%, the “α-helix % of tyrosinase” value worked out at 15%, the “β-sheet % of tyrosinase” value is 35% and the “Random coil % of tyrosinase” value is 45%.
Turning to `C=CC(=O)c1ccc(OC(=O)COC(=O)/C=C/c2ccc(O)cc2)c(OC)c1` [Plasma treated 6a], at mushroom tyrosinase [1] (setting [3]), the “Turn % of tyrosinase” value is listed as 9%, the “α-helix % of tyrosinase” value is recorded as 19%, the “β-sheet % of tyrosinase” value stood at 28% and the “Random coil % of tyrosinase” value turned out to be 44%.
Take `O=c1cc(CO)occ1O` [Kojic acid, reference compound]: in the data set with B16F10 cells (Mus musculus, B16-F10, 250 μg/ml, absence of α-MSH, negative control, read-out: inhibition of melanin synthesis compared to the control), the inhibition (as a rule, the relative decrease from the control value, in per cent) at 250 µg/mL is about 12%.
